Reference: patent US12397045B2, “Clostridioides difficile” (IMPERIAL COLLEGE OF SCIENCE, TECHNOLOGY AND MEDICINE, priority 2018, dated 2025)

Tests used:
[1] = test system: C. difficile; assay: Growth inhibition of C. difficile with 20 mM short or medium chain fatty acids; assay type: cell-based, Clostridioides difficile; conditions: 20 mM fatty acid
From the text: Acetate is a C2 chain and they increase by one carbon until heptanoate is reached which is C7.
The inventors assessed a range of short/medium chain fatty acids (S/MCFA).

[2] = test system: colonocyte cell line Caco2; assay: MTT viability assay of Caco2 cells; assay type: cell-based; conditions: 45 mM, 48 h
Description: A higher OD value represents greater viability.
The inventors determined to what extent the C5, C6 and C7 chain length fatty acids affect viability of the colonocyte cell line Caco2. Caco2 cells were grown until confluent in DMEM with serum and then trypsinised and diluted to 10^5 cells per ml and re-seeded into a 24 well plate and allowed to grow for a further 48 hours. At this point they were exposed to a 45 mM concentration of the SCFA or MCFA for 48 h and viability assessed using an MT assay.

[3] = test system: C. difficile ribotype 010; assay: C. difficile batch cultures, vegetative growth with valerate (OD600); assay type: cell-based, Clostridioides difficile; conditions: sBHI broth pH 6.8, p=0.008
Description: (§1) Vegetative cells were inoculated into sBHI broth containing varying concentrations of valerate (o, 1, 2, 3, 4, 5, 10, and 20 mM) and OD600 measurements were taken at 0, 2, 4, 6, and 8 hours. The change in OD600 (from a time point during the exponential phase) was plotted against the concentrations of valerate tested. (a) C. difficile ribotype 010, (b) C. difficile ribotype 012, (c) C. difficile ribotype 027, (d) Bacteroides uniformis, (e) Bacteroides vulgatus, (f) Clostridium scindens. Error bars represent the mean standard deviation, * p<0.05, ** p<0.01, *** p<0.001.
(§2) The inventors tested the effects of valerate (Fisher Scientific) on the vegetative growth of three C. difficile ribotypes (010, 012, and 027) as well as several gut commensal bacteria (Bacteroides uniformis, Bacteroides vulgatus, and Clostridium scindens). […] The inventors plotted the changes in OD600 (from a time point during the exponential phase) against each concentration of valerate tested. The inventors used ANOVA and Tukey post hoc test to determine whether the concentration of valerate tested affected the growth of the test isolate compared to batch cultures grown in the absence of valerate.
(§3) C. difficile DS1684 (ribotype 010, non-toxigenic strain) was used for chemostat model experiments. C. difficile DS1684, C. difficile CD630 (ribotype 012, virulent multidrug resistant strain), C. difficile R20291 (ribotype 027, a hypervirulent strain), Bacteroides uniformis, Bacteroides vulgatus, and Clostridium scindens (DSM 5676) were used in batch culture experiments. C. difficile ribotype 027 is a common ribotype in Europe and North America,^1-3 while ribotype 012 is one of the common ribotypes in mainland China.^4,5 CD630 and R20291 are genetically and phenotypically well-characterised and are good representatives of their ribotypes.^6 B. uniformis and B. vulgatus were isolated from the stool of a healthy person using fastidious anaerobe agar (Lab M, Heywood, UK) or nutrient agar (Sigma-Aldrich, St. Louis, USA), respectively.

[4] = test system: C. difficile ribotype 012; assay: as above; assay type: cell-based, Clostridioides difficile; conditions: sBHI broth pH 6.8, p=0.003
Description: as §1, §2, §3

[5] = test system: C. difficile ribotype 027; assay: as above; assay type: cell-based, Clostridioides difficile; conditions: sBHI broth pH 6.8, p=0.008
Description: as §1, §2, §3

[6] = test system: 6 strains of C. difficile; assay: Valerate inhibition of 6 strains of C. difficile (change in OD600); assay type: cell-based, Clostridioides difficile; conditions: 0, 5, 10, 20 mM valerate
From the text: Error bars represent mean±SD. **p<0.01;[…] (ANOVA and Tukey post hoc test), N=12.
As there are many strains of the C. difficile pathogen, the inventors extended the range of strains to determine how valerate inhibited growth (FIG. 32), and have also assessed the ability of valerate to target other species of bacteria (FIG. 33).

[7] = test system: gut organoids; conditions: 5 mM valerate; personal communication; cited from earlier work
[8] = test system: Bacteroides vulgatus; assay: Batch cultures of gut commensal with valerate (OD600); assay type: cell-based
Description: as §1, §2, §3

[9] = test system: Bacteroides uniformis; assay: as above; assay type: cell-based; conditions: only concentration that inhibited, p=0.026
Description: as §1, §2, §3

[10] = test system: Clostridium scindens; assay: as above; assay type: cell-based; conditions: 0-20 mM valerate tested, p>0.05
Description: as §1, §2, §3

[11] = test system: CD010; assay: Isovalerate inhibition of C. difficile growth; assay type: cell-based, Clostridioides difficile; conditions: strain CD010
From the text: (§4) The inventors tested the ability of isovalerate to inhibit C. difficile growth (FIG. 36).

[12] = test system: CD012; assay: Isovalerate inhibition of C. difficile growth; assay type: cell-based, Clostridioides difficile; conditions: strain CD012
From the text: as §4

[13] = test system: CD 027; assay: Isovalerate inhibition of C. difficile growth; assay type: cell-based, Clostridioides difficile; conditions: strain CD 027
From the text: as §4

Compound | inhibition of C. difficile growth [1] | potency at inhibiting growth relative to valerate [1] | viability of colonocytes [2] | viability of colonocytes ([2]; listed as C6) | valerate concentration inhibiting vegetative growth [3] | valerate concentration inhibiting vegetative growth [4] | valerate concentration inhibiting vegetative growth [5] | inhibition of growth of C. difficile strains [6] | cell death / alterations in gene expression [7] | inhibition of growth by valerate ([8]; 0-20 mM valerate tested) | growth in broths containing valerate ([8]; 10 mM (p=0.020) or 20 mM (p=0.019) valerate) | valerate concentration inhibiting growth [9] | inhibition of growth by valerate [10] | inhibition of C. difficile growth [11] | inhibition of C. difficile growth [12] | inhibition of C. difficile growth [13]
CCCCCC(=O)O [hexanoate, hexanoic acid] | potent inhibitors | significantly more potent | significantly increased | do not significantly decrease |  |  |  |  |  |  |  |  |  |  |  | 
CCCCC(=O)O [valerate, valeric acid] | potent inhibitors |  | do not significantly decrease |  | 4 mM | 2 mM | 2 mM | effective against all strains | did not result in cell death or cause significant alterations in gene expression | not inhibited at any concentration | grew better | 20 mM | not inhibited at any concentration | inhibited to a greater extent | inhibited to a greater extent | 
CC(C)CC(=O)O [isovalerate] |  |  |  |  |  |  |  |  |  |  |  |  |  | significant ability to inhibit growth | significant ability to inhibit growth | comparable to valerate
CCCCCCC(=O)O [heptanoate, heptanoic acid] | potent inhibitors | significantly more potent | do not significantly decrease |  |  |  |  |  |  |  |  |  |  |  |  | 
